In article PMC4551558, “Differential inhibition of PDKs by phenylbutyrate and enhancement of pyruvate dehydrogenase complex activity by combination with dichloroacetate” (Journal of Inherited Metabolic Disease, 2015):

How the values were obtained:
PDK3 = PDK3 (Homo sapiens, UniProt Q15120); assay: […]-phosphate incorporation into recombinant E1alpha by recombinant human PDK3; Lineweaver-Burk kinetics; format: biochemical; conditions: read-out: Ki (phenylbutyrate)
PDK1 = PDK1 (Homo sapiens, UniProt Q15118); assay: […]-phosphate incorporation into recombinant E1alpha by recombinant human PDK1; Lineweaver-Burk kinetics; format: biochemical; conditions: read-out: Ki (phenylbutyrate)
Sequence of PDK1 (Q15118 29-436): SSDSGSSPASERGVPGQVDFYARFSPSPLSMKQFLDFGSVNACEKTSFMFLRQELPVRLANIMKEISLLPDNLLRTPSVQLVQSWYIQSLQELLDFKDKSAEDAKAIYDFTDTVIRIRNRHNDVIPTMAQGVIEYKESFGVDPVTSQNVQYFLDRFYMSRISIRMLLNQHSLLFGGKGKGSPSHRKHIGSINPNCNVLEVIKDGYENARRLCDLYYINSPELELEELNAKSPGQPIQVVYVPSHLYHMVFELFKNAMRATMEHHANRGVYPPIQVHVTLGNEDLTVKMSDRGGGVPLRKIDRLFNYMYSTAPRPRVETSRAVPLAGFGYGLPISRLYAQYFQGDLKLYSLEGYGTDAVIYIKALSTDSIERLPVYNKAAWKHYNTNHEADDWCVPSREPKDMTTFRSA
Sequence of PDK1 (P08559 30-390 partner): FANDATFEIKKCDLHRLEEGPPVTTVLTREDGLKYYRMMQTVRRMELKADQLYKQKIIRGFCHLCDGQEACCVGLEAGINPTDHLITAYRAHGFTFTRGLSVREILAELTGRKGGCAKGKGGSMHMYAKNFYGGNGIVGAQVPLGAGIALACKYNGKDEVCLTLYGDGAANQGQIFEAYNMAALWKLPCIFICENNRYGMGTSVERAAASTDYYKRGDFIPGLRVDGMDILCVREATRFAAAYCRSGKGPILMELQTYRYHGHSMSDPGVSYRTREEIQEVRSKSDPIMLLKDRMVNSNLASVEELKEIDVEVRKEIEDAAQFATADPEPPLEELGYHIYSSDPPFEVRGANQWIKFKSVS

Sequence of PDK3 (Q15120 whole entry): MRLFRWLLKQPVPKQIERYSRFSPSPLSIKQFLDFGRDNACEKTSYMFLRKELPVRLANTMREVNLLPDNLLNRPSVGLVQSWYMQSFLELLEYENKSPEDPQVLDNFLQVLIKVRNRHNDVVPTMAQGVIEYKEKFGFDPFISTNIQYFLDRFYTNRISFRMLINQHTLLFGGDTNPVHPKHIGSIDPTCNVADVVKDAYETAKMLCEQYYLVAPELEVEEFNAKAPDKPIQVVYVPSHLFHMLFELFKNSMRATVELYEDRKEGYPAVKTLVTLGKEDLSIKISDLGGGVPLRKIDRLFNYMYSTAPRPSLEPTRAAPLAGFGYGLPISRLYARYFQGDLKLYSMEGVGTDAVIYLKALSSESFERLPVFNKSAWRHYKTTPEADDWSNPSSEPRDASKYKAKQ
Sequence of PDK3 (P08559 30-390 partner): as the sequence (P08559 30-390 partner) above

With `O=C(O)CCCc1ccccc1` [PB, phenylbutyrate] the Ki (PDK3) was 0.98 ± 0.19 mM and the Ki (PDK1) was 7.1 ± 0.15 mM.
